The target of data set [1] is T1, histamine H2 -receptor (Cavia porcellus, UniProt P47747).
T1 construct: The spontaneously beating right atrium was dissected free from other tissues; from tissue; host or cells: isolated, spontaneously beating right atrium of male Hartley guinea pigs
Kind of data set: Histamine H2-receptor antagonism, isolated guinea pig right atria assay (displacement of histamine concentration-response curve of atrial rate). The note with it: for Histamine ED50 With 95% Confidence Limits (after test compound): histamine ED50 in presence of test compound 3 × 10^-5 M, 30 minute incubation; for Concentration-Response Curve Displacement Factor: test compound 3 × 10^-5 M, displacement of histamine curve to the right. The arrangement: species or system guinea pig (male Hartley). As to the method: Subsequent investigations by Hughes and Coret, Proc. Soc. […] Black et al., Agents and Actions, 3, 133 (1973) and Brimblecombe et al., Fed. […] The present comparative studies were carried out using a modification of the procedure reported by Reinhardt et al., Agents and Actions, 4, 217 (1974).
Male Hartley strain guinea pigs (350-450 gm.) were sacrificed by a blow on the head. The heart was excised and placed in a Petri dish of oxygenated (95% O2, 5% CO2) modified Krebs solution (g./liter: NaCl 6.6, KCl 0.35, MgSO4.7H2 O 0.295, KH2 PO4 0.162, CaCl2 0.238, NaHCO3 2.1 and dextrose 2.09). The spontaneously beating right atrium was dissected free from other tissues and a silk thread (4-0) attached to each end. The atrium was suspended in a 20 ml. muscle chamber containing oxygenated modified Krebs solution maintained at 32° C. Atrial contractions were recorded isometrically be means of a Grass FT 0.03 force displacement transducer and recordings of contractile force and rate were made with Beckman RP Dynograph.
A resting tension of 1 g. was applied to the atrium and it was allowed to equilibrate for 1 hour.
Concentration-response curve displacement factors were calculated as follows: [formula] […] [formula]

The subject of data set [2] is peptic ulcer disease. The note with it: cited from earlier work.
Data set [3] concerns gastric secretion. The note with it: animals; cited from earlier work.
Data set [4] relates to gastric secretion. The note with it: man, cited from earlier work.
Data set [5] has as its system histamine H2 -receptors. The note with it: isolated right atria, cited from earlier work.
The conditions of data set [6]: clinical use; cited from earlier work.
The test system of data set [7] is H2 -receptors. The note with it: compared with other H2 antagonists; cited from earlier work.
The conditions of data set [8]: 200-300 mg. tablets, multi daily doses; cited from earlier work.

Read-outs that look alike come from different tables or passages of the source.

T1 sequence (P47747 whole entry): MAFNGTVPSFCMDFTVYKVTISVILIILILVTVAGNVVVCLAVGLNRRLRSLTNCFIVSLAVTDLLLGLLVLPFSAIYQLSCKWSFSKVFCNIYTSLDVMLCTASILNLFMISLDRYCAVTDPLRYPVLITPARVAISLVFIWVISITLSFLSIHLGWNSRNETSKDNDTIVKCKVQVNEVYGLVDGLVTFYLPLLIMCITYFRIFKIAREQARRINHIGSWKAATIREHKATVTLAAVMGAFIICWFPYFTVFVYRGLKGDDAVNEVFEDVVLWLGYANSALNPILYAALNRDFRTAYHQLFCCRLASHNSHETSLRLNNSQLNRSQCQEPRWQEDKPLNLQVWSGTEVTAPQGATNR

Turning to `C#CCNC(=C[N+](=O)[O-])NCCSCc1ncccc1Cl` [BL-6075, 1-Nitro-2-(2-propynlamino)-2-{2-[(3-chloro-2-pyridyl)-methylthio]ethylamino}ethylene], in data set [1], the “Histamine ED50 With 95% Confidence Limits (after test compound)” value was 20.97 µg/mL and the “Concentration-Response Curve Displacement Factor” value came to 52.77.

Turning to `C#CCNC(=NCCSCc1ncccc1Cl)NC#N` [BL-6083, N-Cyano-N'-(2-propyn-1-yl)-N"-{2-[(3-chloro-2-pyridyl)-methylthio]ethyl}guanidine], in data set [1], the “Histamine ED50 With 95% Confidence Limits (after test compound)” value worked out at 57.92 µg/mL and the “Concentration-Response Curve Displacement Factor” value is listed as 206.86. Besides, in data set [1] (ratio of displacement factors, cimetidine = 1.0, times more potent/active than cimetidine), the “Activity Ratio Relative to Cimetidine” value was found to be 8.19.

Consider `CNC(=S)NCCCCc1c[nH]cn1` [Burimamide], for which, in data set [2] (in vivo), the “clinical effectiveness as H2 -receptor antagonist” value is reported as “first clinically effective H2 -receptor antagonist”. For the same compound, the “inhibition of gastric secretion” value in data set [3] and in data set [4] was “inhibits gastric secretion” throughout. In data set [5], the “antagonism of H2-receptors” value is given as “competitive antagonist”.

As to `CNC(=NC#N)NCCSCc1[nH]cnc1C` [Cimetidine], the “Histamine ED50 With 95% Confidence Limits (after test compound)” value in data set [1] came to 4.80 µg/mL. The “therapeutic effectiveness in peptic ulcer disease” value in data set [2] (clinical evaluation) is “effective therapeutic agent in the treatment of peptic ulcer disease”. Also, the “toxicity (agranulocytosis)” value in data set [6] is on record as “without producing agranulocytosis”. In data set [7], the “H2 antagonist potency, comparison in words” value is on record as “as effective an H2 antagonist as metiamide”. For the same compound, in data set [8], the half-life result is on record as “relatively short”.

On to `NCCc1c[nH]cn1` [Histamine, histamine], for which, in data set [1] (final molar bath concentration, increase in atrial rate), the “histamine concentration giving maximal response” value was 30 µM. Also, the “effect on contractile rate” value in data set [5] (agonist) is “concentration-related increases in the contractile rate”.

Turning to `CNC(=S)NCCSCc1[nH]cnc1C` [Metiamide], the “toxicity (agranulocytosis)” value in data set [6] was “toxicity (agranulocytosis)”. The “H2 antagonist potency, comparison in words” value in data set [7] was “more potent than burimamide”. Besides, in data set [4] (oral), the oral activity result is recorded as “orally active in man”.

(Values after patent US4282363A, “1-Nitro-2-(2-alkynylamino)-2-[(2-pyridylmethylthio)-ethylamino]ethylene derivatives” (Bristol-Myers Company, priority 1980, dated 1981).)
